Source: patent US11572590B2, “Methods for evaluating tumor cell spheroids using 3D microfluidic cell culture device” (Dana-Farber Cancer Institute, Inc., priority 2017, dated 2023)
Where two headings read alike, the source gives them in different places.

Tests used:
Test in all cases: SelectScreen Kinase Profiling, single point inhibition and IC50 for off-target kinases
Type in all cases: biochemical
off-target kinases [1] = biological target: T1, off-target kinases (Homo sapiens, UniProt O94806); conditions: PRKCN (PKD3), ATP Km app, ZLYTE
T1 sequence (O94806 1-890): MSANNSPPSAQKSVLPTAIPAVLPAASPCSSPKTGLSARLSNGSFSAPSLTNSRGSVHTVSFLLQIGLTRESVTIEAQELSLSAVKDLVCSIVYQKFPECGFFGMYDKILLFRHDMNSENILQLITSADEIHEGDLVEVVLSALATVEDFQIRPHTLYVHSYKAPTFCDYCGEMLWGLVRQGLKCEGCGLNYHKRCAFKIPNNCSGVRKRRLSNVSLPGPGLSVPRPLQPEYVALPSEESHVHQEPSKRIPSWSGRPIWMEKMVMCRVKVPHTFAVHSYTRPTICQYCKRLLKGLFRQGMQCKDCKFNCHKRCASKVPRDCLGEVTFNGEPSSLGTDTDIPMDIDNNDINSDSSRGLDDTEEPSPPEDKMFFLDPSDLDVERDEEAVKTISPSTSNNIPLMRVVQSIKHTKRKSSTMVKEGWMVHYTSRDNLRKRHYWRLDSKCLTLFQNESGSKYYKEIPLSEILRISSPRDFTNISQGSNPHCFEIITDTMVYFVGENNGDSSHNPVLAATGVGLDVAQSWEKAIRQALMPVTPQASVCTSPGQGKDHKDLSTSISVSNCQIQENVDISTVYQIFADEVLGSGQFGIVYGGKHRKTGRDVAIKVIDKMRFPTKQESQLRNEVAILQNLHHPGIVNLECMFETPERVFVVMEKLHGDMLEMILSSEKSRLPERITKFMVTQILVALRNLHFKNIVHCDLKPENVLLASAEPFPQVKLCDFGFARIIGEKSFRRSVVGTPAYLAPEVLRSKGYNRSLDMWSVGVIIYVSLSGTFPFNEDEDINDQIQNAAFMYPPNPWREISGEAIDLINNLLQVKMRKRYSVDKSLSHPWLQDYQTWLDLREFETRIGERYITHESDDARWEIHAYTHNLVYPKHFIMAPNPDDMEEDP

off-target kinases [2] = biological target: T2, off-target kinases (Homo sapiens, UniProt Q15835); conditions: GRK1, LanthaScreen Binding
T2 sequence (Q15835 1-563): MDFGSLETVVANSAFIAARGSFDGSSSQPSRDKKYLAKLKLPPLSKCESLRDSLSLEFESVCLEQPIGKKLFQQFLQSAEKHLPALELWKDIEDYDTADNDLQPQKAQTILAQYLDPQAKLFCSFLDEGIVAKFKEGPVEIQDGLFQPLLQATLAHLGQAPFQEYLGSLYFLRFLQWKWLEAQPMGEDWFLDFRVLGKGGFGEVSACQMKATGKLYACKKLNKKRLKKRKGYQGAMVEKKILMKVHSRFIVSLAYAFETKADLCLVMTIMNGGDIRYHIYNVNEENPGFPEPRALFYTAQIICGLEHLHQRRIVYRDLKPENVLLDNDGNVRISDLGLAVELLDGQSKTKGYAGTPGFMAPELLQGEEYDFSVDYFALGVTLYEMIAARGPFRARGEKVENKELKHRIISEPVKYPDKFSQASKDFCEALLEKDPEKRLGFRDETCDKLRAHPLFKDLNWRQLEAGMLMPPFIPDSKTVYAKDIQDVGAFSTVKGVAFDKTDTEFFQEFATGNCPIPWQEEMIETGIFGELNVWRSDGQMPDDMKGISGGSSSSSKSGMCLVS

off-target kinases [3] = biological target: off-target kinases (Homo sapiens, UniProt O00506); conditions: STK25 (YSK1), ZLYTE, ATP Km app
off-target kinases [4] = biological target: off-target kinases (Homo sapiens, UniProt P05771); conditions: PRKCB1 (PKC beta I), ZLYTE, ATP Km app
Chain of off-target kinases (Homo sapiens, UniProt P05771) (P05771 whole entry): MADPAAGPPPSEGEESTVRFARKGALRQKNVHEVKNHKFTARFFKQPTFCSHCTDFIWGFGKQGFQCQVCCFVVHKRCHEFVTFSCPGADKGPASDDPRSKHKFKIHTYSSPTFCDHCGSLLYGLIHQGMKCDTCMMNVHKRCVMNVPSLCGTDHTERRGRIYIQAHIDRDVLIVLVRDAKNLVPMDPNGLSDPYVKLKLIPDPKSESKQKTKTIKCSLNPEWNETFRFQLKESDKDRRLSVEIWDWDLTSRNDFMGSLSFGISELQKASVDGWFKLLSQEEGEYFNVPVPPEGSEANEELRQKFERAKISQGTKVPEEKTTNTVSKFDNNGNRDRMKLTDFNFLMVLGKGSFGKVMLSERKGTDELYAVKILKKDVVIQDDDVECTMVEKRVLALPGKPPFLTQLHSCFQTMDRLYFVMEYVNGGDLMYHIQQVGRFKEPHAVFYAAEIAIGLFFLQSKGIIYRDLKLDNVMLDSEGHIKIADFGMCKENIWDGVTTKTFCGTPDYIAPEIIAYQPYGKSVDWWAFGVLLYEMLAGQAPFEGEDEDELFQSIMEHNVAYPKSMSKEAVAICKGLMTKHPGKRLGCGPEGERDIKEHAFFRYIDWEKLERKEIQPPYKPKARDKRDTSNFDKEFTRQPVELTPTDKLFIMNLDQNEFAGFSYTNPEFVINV

Chain of off-target kinases (Homo sapiens, UniProt O00506) (O00506 whole entry): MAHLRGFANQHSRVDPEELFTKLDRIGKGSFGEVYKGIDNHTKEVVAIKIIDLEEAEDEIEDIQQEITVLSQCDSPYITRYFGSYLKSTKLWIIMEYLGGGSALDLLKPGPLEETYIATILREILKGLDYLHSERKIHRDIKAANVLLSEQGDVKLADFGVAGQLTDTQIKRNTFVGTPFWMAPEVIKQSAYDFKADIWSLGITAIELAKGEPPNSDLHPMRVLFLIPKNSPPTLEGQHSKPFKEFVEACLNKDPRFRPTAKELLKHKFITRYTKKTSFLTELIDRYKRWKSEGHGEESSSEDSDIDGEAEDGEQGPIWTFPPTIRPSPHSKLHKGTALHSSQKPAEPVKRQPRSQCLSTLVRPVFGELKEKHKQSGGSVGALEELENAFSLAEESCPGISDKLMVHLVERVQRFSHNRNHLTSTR

N#Cc1cc(-c2ncnc(Nc3ccc(N4CCN(C5COC5)CC4)cc3)n2)ccc1OC1CCOCC1 [Compound 1, 5-(4-((4-(4-(oxetan-3-yl)piperazin-1-yl)phenyl)amino)-1,3,5-triazin-2-yl)-2-((tetrahydro-2H-pyran-4-yl)oxy)benzonitrile]
inhibition (off-target kinases [1]; read-out: % Inhibition 1): 98% | inhibition (off-target kinases [1]; read-out: % Inhibition 2): 96% | inhibition (off-target kinases [1]; read-out: % Inhibition Avg): 97% | inhibition (off-target kinases [2]; read-out: % Inhibition 1): 7% | inhibition (off-target kinases [2]; read-out: % Inhibition 2): 2% | inhibition (off-target kinases [2]; read-out: % Inhibition Avg): 5% | inhibition (off-target kinases [3]; read-out: % Inhibition 1): 0% | inhibition (off-target kinases [3]; read-out: % Inhibition 2): -4% | inhibition (off-target kinases [3]; read-out: % Inhibition Avg): -2% | inhibition (off-target kinases [4]; read-out: % Inhibition 1): 5% | inhibition (off-target kinases [4]; read-out: % Inhibition 2): 3% | inhibition (off-target kinases [4]; read-out: % Inhibition Avg): 4%
